{"source": "patent US9353082B2", "about": "“Pharmaceutical compounds” (BIAL—PORTELA & CA, S.A., priority 2008, dated 2016)", "key": {"carboxylesterase (CE) [1]": {"tested_on": "carboxylesterase (CE)", "experiment": "Carboxylesterase (CE) activity in mouse liver microsomes (LVms), p-nitrophenyl acetate", "format": "biochemical", "conditions": "10 uM compound, read 10 min after substrate, remaining CE activity", "method": "(§1) FAAH inhibition was determined as described above. Inhibition of monoacylglycerol lipase (MAGL) and carboxylesterase (CE) was performed according to the protocols described below. The controls for both in vitro and in vivo were the reaction mix minus the test compounds. Therefore, a low value in Table 2 below for the test compounds indicates a strong inhibitor.\n(§2) CE activity measurement is based on the formation of p-nitrophenol from p-nitrophenyl acetate. Briefly, in 96-well plates 8 μg/ml of rat or mouse liver microsomes (LVms) were incubated with 10 μM FAAH inhibitors for 15 min and then the substrate, p-nitrophenyl acetate, was added to a final concentration of 1 mM. The plate was read at 405 nm 10 min after substrate addition for the appearance of p-nitrophenol using a spectrophotometer. The carboxylesterase activity in microsome extracts without inhibitor added were set at 100% as control and the remaining CE activities after incubation with inhibitors were calculated relative to the control."}, "carboxylesterase (CE) [2]": {"tested_on": "carboxylesterase (CE)", "experiment": "Carboxylesterase (CE) activity in rat liver microsomes (LVms), p-nitrophenyl acetate", "format": "biochemical", "conditions": "10 uM compound, read 10 min after substrate, remaining CE activity", "method": "as §1, §2"}, "FAAH [3]": {"molecular_target": "T1, FAAH (Mus musculus, UniProt O08914)", "T1 construct": "A fragment of liver, left lung lobe and brain without cerebellum were removed; from tissue; host or cells: male NMRI mice; brain (without cerebellum) and liver homogenates", "T1 sequence (O08914 1-579)": "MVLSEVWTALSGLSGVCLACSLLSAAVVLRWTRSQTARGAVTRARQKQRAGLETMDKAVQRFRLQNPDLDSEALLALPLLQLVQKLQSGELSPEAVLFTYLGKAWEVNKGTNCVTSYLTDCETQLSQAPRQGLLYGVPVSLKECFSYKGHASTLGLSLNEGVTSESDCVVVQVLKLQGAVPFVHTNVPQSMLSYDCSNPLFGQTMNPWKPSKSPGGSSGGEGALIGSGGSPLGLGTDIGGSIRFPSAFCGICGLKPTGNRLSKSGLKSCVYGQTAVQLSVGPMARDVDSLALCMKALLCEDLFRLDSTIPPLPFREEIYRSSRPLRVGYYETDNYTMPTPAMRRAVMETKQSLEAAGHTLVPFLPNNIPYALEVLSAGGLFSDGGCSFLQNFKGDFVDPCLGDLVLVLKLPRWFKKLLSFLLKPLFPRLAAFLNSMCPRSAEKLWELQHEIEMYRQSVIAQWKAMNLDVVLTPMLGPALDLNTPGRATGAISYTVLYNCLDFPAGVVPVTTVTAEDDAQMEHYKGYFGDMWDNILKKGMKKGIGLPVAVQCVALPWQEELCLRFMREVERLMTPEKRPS", "experiment": "In vivo FAAH inhibition after oral dosing, remaining activity in liver homogenate (LVh, peripheral tissue)", "design": "species or system NMRI mice", "conditions": "8 h", "outline": "(§3)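 Remaining FAAH activity is given as % of vehicle-treated controls after blank subtraction, measured by radiolabelled AEA hydrolysis (2 μM AEA, 5 nM 3H-AEA, 37 °C) in brain (10 min) or liver (7 min) homogenates. These came from fasted male NMRI mice dosed orally at 30 or 3 mg/kg.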"}, "FAAH [4]": {"molecular_target": "T1, FAAH", "experiment": "In vivo FAAH inhibition after oral dosing, remaining activity in brain homogenate (BRh, central nervous tissue)", "design": "species or system NMRI mice", "conditions": "8 h", "outline": "as §3"}}}
{"molecule": "COc1cccc(-c2cn(C(=O)N3CCCc4ccccc43)cn2)c1", "note": "[Compound 39, (3,4-dihydroquinolin-1(2H)-yl)(4-(3-methoxyphenyl)-1H-imidazol-1-yl)methanone]", "values": [{"measurement": "CE Mou LVms 10 uM 10 min", "setting": "carboxylesterase (CE) [1]", "result": "84.3 % of control"}, {"measurement": "CE Rat LVms 10 uM 10 min", "setting": "carboxylesterase (CE) [2]", "result": "94.7 % of control"}, {"measurement": "FAAH LVh 3 mg · kg · 8 h", "setting": "FAAH [3]; in vivo, mouse liver, 3 mg/kg oral, remaining enzymatic activity", "result": "101.1 % of control"}, {"measurement": "In Vivo LVh 3 mg/kg 8 h, remaining FAAH activity", "setting": "FAAH [3]; liver homogenate, 3 mg/kg", "result": "101.1 % of control"}, {"measurement": "In Vivo BRh 3 mg/kg 8 h, remaining FAAH activity", "setting": "FAAH [4]; brain homogenate, 3 mg/kg", "result": "120.6 % of control"}, {"measurement": "FAAH BRh 3 mg · kg · 8 h", "setting": "FAAH [4]; in vivo, mouse brain, 3 mg/kg oral, remaining enzymatic activity", "result": "120.6 % of control"}]}
